Legend:
[1] = molecular target: T1, 5-hydroxytryptamine receptor 2C (Homo sapiens, UniProt P28335); test: Antagonist activity at 5-HT2C receptor (unknown origin) incubated for 60 mins followed by 10 mins incubation in dark at room temperature by FLIPR method; type: functional
T1 sequence (P28335 whole entry): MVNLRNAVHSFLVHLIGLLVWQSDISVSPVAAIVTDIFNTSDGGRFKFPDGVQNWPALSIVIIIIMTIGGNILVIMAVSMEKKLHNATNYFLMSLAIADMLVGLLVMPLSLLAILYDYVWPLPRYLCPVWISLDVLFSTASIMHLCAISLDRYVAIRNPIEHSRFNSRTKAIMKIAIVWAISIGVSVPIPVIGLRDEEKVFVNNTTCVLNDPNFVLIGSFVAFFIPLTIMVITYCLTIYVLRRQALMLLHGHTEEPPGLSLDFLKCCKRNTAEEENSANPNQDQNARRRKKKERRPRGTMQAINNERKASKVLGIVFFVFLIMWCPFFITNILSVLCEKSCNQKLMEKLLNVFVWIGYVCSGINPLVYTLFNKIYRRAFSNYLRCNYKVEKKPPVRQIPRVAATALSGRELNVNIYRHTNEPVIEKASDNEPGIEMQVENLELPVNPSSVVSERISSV

[2] = molecular target: T2, 5-hydroxytryptamine receptor 2B (Homo sapiens, UniProt P41595); test: Displacement of [3H]LSD from 5-HT2B receptor (unknown origin) assessed as inhibition constant incubated for 90 mins by MicroBeta scintillation counting method
T2 sequence (P41595 whole entry): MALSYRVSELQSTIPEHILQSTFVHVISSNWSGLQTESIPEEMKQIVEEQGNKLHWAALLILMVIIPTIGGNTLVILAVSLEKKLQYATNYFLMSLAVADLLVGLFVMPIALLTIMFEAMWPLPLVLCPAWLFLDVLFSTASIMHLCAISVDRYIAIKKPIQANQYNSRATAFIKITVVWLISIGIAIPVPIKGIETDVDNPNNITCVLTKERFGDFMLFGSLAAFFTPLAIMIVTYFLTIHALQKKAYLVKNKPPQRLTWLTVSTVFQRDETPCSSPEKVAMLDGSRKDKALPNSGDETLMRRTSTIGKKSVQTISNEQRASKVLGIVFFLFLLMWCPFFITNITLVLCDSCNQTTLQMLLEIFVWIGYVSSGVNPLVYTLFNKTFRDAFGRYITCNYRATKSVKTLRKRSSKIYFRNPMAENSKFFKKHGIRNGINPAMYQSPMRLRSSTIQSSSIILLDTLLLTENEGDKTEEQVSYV

[3] = molecular target: T3, 5-hydroxytryptamine receptor 2A (Homo sapiens, UniProt P28223); test: Antagonist activity at 5-HT2A receptor (unknown origin) incubated for 60 mins followed by 10 mins incubation in dark at room temperature by FLIPR method; type: functional
T3 sequence (P28223 whole entry): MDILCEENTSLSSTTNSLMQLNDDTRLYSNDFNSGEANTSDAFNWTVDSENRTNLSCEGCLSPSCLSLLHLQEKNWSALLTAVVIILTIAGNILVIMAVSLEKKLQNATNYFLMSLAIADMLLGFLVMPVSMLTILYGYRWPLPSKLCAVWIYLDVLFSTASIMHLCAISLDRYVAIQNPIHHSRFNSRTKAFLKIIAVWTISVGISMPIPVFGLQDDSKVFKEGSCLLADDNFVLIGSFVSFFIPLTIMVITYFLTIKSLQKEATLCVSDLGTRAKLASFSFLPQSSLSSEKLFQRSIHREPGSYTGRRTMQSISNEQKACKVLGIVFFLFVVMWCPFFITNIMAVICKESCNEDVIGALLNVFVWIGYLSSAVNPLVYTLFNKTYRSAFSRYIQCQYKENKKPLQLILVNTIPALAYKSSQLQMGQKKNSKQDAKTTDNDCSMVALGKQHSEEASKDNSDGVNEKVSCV

[4] = molecular target: T1, 5-hydroxytryptamine receptor 2C; test: Displacement of [3H]Mesulergine from 5-HT2C receptor (unknown origin) assessed as inhibition constant incubated for 90 mins by MicroBeta scintillation counting method
[5] = molecular target: T3, 5-hydroxytryptamine receptor 2A; test: Displacement of [3H]Ketanserin from 5-HT2A receptor (unknown origin) assessed as inhibition constant incubated for 90 mins by MicroBeta scintillation counting method
[6] = organism: Homo sapiens; test: Selectivity ratio of Ki for 5-HT2B receptor (unknown origin) to Ki for 5-HT2C receptor (unknown origin)
[7] = molecular target: T2, 5-hydroxytryptamine receptor 2B; test: Antagonist activity at 5-HT2B receptor (unknown origin) incubated for 60 mins followed by 10 mins incubation in dark at room temperature by FLIPR method; type: functional
[8] = molecular target: Serotonin 2 receptors; 5-HT2a & 5-HT2c (Homo sapiens) (UniProt P28223+P28335); test: Selectivity ratio of Ki for 5-HT2A receptor (unknown origin) to Ki for 5-HT2C receptor (unknown origin); type: protein assay
Chain of Serotonin 2 receptors; 5-HT2a & 5-HT2c (Homo sapiens) (P28223 whole entry, looked up, one chain of several): as the sequence (P28223 whole entry) above

[9] = organism: Homo sapiens; test: Selectivity ratio of Ki for 5-HT2A receptor (unknown origin) to Ki for 5-HT2B receptor (unknown origin)

| Compound | IC50 [1] [µM] | Ki [2] [µM] | IC50 [3] [µM] | Ki [4] [µM] | Ki [5] [µM] | Ratio Ki [6] | IC50 [7] [µM] | Ratio Ki [8] | Ratio Ki [9] |
| --- | --- | --- | --- | --- | --- | --- | --- | --- | --- |
| COc1cc2c(cc1OC)-c1c(OC)c(OCc3ccc(Br)cc3)cc3c1[C@H](C2)N(C)CC3 | 0.436 | 0.359 | 0.162 | 0.023 | 0.02 | 16 | 3 | 0.9 | 0.06 |
| COc1cc2c(cc1OC)-c1c(OC)c(OCCF)cc3c1[C@H](C2)N(C)CC3 | – | 0.629 | – | 1.13 | – | 0.6 | – | – | – |
| COc1cc2c(cc1OC1CCCCC1)C[C@H]1c3c(cc(OC)c(OC)c3-2)CCN1C | – | 0.053 | – | 0.614 | – | 0.1 | – | 0.9 | 10.8 |
| Cn1ccc2cc3c(cc21)CCN3C(=O)Nc1cccnc1 | – | 0.02 | – | – | – | – | – | – | – |
| CCCCC(C)Oc1cc2c3c(c1OC)-c1cc(OC)c(OC)cc1C[C@@H]3N(C)CC2 (some centres undefined) | – | 0.082 | – | 0.072 | 0.155 | 1 | – | 2.2 | 1.9 |
| CCCC(C)Oc1cc2c3c(c1OC)-c1cc(OC)c(OC)cc1C[C@@H]3N(C)CC2 (some centres undefined) | – | 0.025 | – | 0.037 | 0.244 | 0.7 | – | 6.6 | 9.8 |
| COc1cc2c(cc1OCc1ccccc1)C[C@H]1c3c(cc(OC)c(OC)c3-2)CCN1C | – | 0.192 | – | 0.179 | – | 1.1 | – | 1.2 | 1.1 |
| C=CCOc1cc2c(cc1OC)-c1c(OC)c(OC)cc3c1[C@H](C2)N(C)CC3 | – | 0.055 | – | 0.543 | – | 0.1 | – | 0.7 | 7 |
| COc1cc2c(cc1OC)-c1c(OC)c(OC3CCCCC3)cc3c1[C@H](C2)N(C)CC3 | – | 0.092 | – | 0.113 | 0.534 | 0.8 | – | 4.7 | 5.8 |
| COc1cc2c(cc1OC)-c1c(OC)c(OC)cc3c1[C@H](C2)N(C)CC3 [GLAUCINE] | – | 0.119 | – | 0.328 | – | 0.4 | – | 2.9 | 8.1 |
| CCC(C)Oc1cc2c(cc1OC)-c1c(OC)c(OC)cc3c1[C@H](C2)N(C)CC3 (some centres undefined) | – | 0.022 | – | 0.238 | – | 0.1 | – | 1.6 | 17.1 |
| COc1cc2c(cc1OCc1ccc(Br)cc1)C[C@H]1c3c(cc(OC)c(OC)c3-2)CCN1C | – | 0.042 | – | 0.281 | – | 0.1 | – | 1.5 | 10 |
| COc1cc2c(cc1OCCF)C[C@H]1c3c(cc(OC)c(OC)c3-2)CCN1C | – | 0.048 | – | 0.542 | – | 0.1 | – | 2.1 | 24.1 |
| COc1cc2c(cc1OCC1CC1)C[C@H]1c3c(cc(OC)c(OC)c3-2)CCN1C | – | 0.029 | – | 0.533 | – | 0.05 | – | 1.1 | 20.1 |
| CCOc1cc2c3c(c1OC)-c1cc(OC)c(OC)cc1C[C@@H]3N(C)CC2 | – | 0.153 | – | 0.34 | 0.512 | 0.5 | – | 1.5 | 3.3 |
| C=CCOc1cc2c3c(c1OC)-c1cc(OC)c(OC)cc1C[C@@H]3N(C)CC2 | – | 0.016 | – | 0.05 | 0.101 | 0.3 | – | 2 | 6.3 |

| Compound | IC50 [1] [µM] | Ki [2] [µM] | IC50 [3] [µM] | Ki [4] [µM] | Ki [5] [µM] | Ratio Ki [6] | IC50 [7] [µM] | Ratio Ki [8] | Ratio Ki [9] |
| --- | --- | --- | --- | --- | --- | --- | --- | --- | --- |
| CCCCC(C)Oc1cc2c(cc1OC)-c1c(OC)c(OC)cc3c1[C@H](C2)N(C)CC3 (some centres undefined) | – | 0.033 | – | 0.274 | – | 0.1 | – | 1.6 | 13.5 |
| CCCCCCOc1cc2c(cc1OC)-c1c(OC)c(OC)cc3c1[C@H](C2)N(C)CC3 | – | 0.053 | – | 0.614 | – | 0.1 | – | 0.9 | 10.8 |
| COc1cc2c(cc1OC)-c1c(OC)c(OCc3ccccc3)cc3c1[C@H](C2)N(C)CC3 | 0.161 | 0.048 | 0.137 | 0.004 | 0.022 | 12 | 1.23 | 5.5 | 0.5 |
| CCCCCCOc1cc2c3c(c1OC)-c1cc(OC)c(OC)cc1C[C@@H]3N(C)CC2 | – | 0.105 | – | 0.082 | 0.213 | 1 | – | 2.6 | 2 |
| CCOc1cc2c(cc1OC)-c1c(OC)c(OC)cc3c1[C@H](C2)N(C)CC3 | – | 0.08 | – | 0.425 | – | 0.2 | – | 1.9 | 10.2 |
| CCCC(C)Oc1cc2c(cc1OC)-c1c(OC)c(OC)cc3c1[C@H](C2)N(C)CC3 (some centres undefined) | – | 0.01 | – | 0.219 | – | 0.05 | – | 1.1 | 24.4 |
| CCCCOc1cc2c3c(c1OC)-c1cc(OC)c(OC)cc1C[C@@H]3N(C)CC2 | – | 0.015 | – | 0.047 | 0.187 | 0.3 | – | 4 | 12.5 |
| CCCCCOc1cc2c3c(c1OC)-c1cc(OC)c(OC)cc1C[C@@H]3N(C)CC2 | – | 0.047 | – | 0.04 | 0.138 | 1 | – | 3.5 | 2.9 |
| CCCCCOc1cc2c(cc1OC)-c1c(OC)c(OC)cc3c1[C@H](C2)N(C)CC3 | – | 0.057 | – | 0.504 | – | 0.1 | – | 0.5 | 4.2 |
| Cc1nc2sccn2c(=O)c1CCN1CCC(=C(c2ccc(F)cc2)c2ccc(F)cc2)CC1 [RITANSERIN] | – | – | – | 0.0008 | – | – | – | – | – |
| COc1cc2c(cc1OC(C)C)C[C@H]1c3c(cc(OC)c(OC)c3-2)CCN1C | – | 0.045 | – | 0.559 | – | 0.1 | – | 1.3 | 16.7 |
| COc1cc2c(cc1OC)-c1c(OC)c(OC(C)C)cc3c1[C@H](C2)N(C)CC3 | – | 0.156 | – | 0.19 | 0.587 | 0.8 | – | 3.1 | 3.8 |
| CCC(C)Oc1cc2c3c(c1OC)-c1cc(OC)c(OC)cc1C[C@@H]3N(C)CC2 (some centres undefined) | – | 0.096 | – | 0.094 | 0.293 | 1 | – | 3.1 | 3.1 |
| CCCCOc1cc2c(cc1OC)-c1c(OC)c(OC)cc3c1[C@H](C2)N(C)CC3 | – | 0.056 | – | 0.45 | – | 0.1 | – | 0.6 | 4.8 |
| COc1cc2c(cc1OC)-c1c(OC)c(OCC3CC3)cc3c1[C@H](C2)N(C)CC3 | – | 0.04 | – | 0.104 | 0.238 | 0.4 | – | 2.3 | 6 |
